Results published in ChEMBL document CHEMBL3352641, “Discovery of pyrrolo[1,2-b]pyridazine-3-carboxamides as Janus kinase (JAK) inhibitors” (Bioorg Med Chem Lett, 2014).

Columns and labels:
[1] = AUC in balb/c mouse at 2 mg/kg, iv; type: ADME, organism-based; set-up: dose 2 mg/kg, route intravenous; conditions: plasma
[2] = AUC in balb/c mouse at 10 mg/kg, po; type: ADME, organism-based; set-up: dose 10 mg/kg, route oral; conditions: plasma
[3] = Fraction unbound in human serum; type: ADME, cell-free
[4] = Oral bioavailability in balb/c mouse at 50 mg/kg; type: ADME, organism-based; conditions: in vivo
[5] = biological target: Cytochrome P450 3A4 (Homo sapiens, UniProt P08684); experiment: Inhibition of CYP3A4 (unknown origin); type: ADME
[6] = biological target: T1, Tyrosine-protein kinase JAK3 (Homo sapiens, UniProt P52333); experiment: Inhibition of JAK3 (unknown origin) by filter assay
T1 sequence (P52333 whole entry): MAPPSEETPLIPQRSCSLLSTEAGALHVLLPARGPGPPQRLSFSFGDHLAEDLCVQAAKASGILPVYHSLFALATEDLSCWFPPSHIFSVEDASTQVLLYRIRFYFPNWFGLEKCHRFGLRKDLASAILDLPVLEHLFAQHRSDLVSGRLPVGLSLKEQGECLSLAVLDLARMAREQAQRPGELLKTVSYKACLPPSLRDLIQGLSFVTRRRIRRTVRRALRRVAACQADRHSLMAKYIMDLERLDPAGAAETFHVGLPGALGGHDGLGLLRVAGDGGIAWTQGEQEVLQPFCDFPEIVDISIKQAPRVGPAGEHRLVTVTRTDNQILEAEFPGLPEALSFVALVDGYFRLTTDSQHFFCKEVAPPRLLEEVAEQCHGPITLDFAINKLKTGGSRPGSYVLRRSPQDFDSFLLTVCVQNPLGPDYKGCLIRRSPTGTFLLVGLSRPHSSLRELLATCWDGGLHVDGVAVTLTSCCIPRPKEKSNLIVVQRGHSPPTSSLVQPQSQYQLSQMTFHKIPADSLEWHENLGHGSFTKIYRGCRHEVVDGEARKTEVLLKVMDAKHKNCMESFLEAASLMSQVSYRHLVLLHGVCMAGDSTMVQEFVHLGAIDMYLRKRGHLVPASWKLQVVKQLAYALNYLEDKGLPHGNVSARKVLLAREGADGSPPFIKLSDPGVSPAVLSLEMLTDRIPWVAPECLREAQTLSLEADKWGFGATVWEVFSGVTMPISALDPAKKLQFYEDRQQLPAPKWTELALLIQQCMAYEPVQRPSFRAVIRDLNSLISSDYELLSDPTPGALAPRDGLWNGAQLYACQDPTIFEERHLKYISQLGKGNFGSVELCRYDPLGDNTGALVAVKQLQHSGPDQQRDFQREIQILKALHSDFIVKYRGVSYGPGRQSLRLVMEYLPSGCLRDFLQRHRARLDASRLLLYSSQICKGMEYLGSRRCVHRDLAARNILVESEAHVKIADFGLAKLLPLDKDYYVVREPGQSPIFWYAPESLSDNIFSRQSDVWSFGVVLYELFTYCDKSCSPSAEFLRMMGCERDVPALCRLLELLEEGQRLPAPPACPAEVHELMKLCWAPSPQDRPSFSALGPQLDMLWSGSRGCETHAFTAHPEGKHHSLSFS

[7] = biological target: T2, Cytochrome P450 2C8 (Homo sapiens, UniProt P10632); experiment: Inhibition of CYP2C8 (unknown origin); type: ADME
T2 sequence (P10632 whole entry): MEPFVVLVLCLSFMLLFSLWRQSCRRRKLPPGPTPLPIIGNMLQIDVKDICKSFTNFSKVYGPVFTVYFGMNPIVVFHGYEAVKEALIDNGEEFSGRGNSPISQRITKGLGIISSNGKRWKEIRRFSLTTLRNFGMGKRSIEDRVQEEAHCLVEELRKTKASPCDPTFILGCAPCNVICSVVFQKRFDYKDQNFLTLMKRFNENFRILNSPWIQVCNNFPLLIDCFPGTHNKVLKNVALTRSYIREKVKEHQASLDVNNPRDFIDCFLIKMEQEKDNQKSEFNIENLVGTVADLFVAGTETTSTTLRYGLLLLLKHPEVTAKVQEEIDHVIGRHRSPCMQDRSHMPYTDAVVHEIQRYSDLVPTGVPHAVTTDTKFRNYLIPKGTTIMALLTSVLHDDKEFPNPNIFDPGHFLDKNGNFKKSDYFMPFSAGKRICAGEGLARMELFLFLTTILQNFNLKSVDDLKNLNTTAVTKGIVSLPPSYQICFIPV

[8] = biological target: Tyrosine-protein kinase JAK1 (Homo sapiens, UniProt P23458); experiment: Inhibition of JAK1 (unknown origin) bycaliper assay
[9] = Cmax in balb/c mouse at 10 mg/kg, po; type: ADME, organism-based; set-up: dose 10 mg/kg, route oral; conditions: in vivo
[10] = Half life human liver microsomes; type: ADME
[11] = Half life in balb/c mouse at 50 mg/kg, po; type: ADME, organism-based; set-up: dose 50 mg/kg, route oral; conditions: in vivo
[12] = Cmax in balb/c mouse at 2 mg/kg, po; type: ADME, organism-based; set-up: dose 2 mg/kg, route oral; conditions: in vivo
[13] = Half life in balb/c mouse at 2 mg/kg, po; type: ADME, organism-based; set-up: dose 2 mg/kg, route oral; conditions: in vivo
[14] = biological target: T3, Cytochrome P450 1A2 (Homo sapiens, UniProt P05177); experiment: Inhibition of CYP1A2 (unknown origin); type: ADME
T3 sequence (P05177 whole entry): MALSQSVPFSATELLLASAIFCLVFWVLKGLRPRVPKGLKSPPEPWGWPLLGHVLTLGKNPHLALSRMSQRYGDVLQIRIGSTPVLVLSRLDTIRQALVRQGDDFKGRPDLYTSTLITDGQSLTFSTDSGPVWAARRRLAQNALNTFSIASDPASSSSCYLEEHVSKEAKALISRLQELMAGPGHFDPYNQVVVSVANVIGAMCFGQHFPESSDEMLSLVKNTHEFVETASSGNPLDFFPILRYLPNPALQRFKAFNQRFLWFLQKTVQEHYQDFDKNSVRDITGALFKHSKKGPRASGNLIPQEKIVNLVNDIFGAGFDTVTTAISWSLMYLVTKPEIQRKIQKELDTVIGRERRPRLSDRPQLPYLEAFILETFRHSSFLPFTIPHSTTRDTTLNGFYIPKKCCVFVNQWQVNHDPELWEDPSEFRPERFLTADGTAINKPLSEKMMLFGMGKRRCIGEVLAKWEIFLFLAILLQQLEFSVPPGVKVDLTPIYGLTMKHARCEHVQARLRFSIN

[15] = biological target: Cytochrome P450 2C9 (Homo sapiens, UniProt P11712); experiment: Inhibition of CYP2C9 (unknown origin); type: ADME
[16] = Oral bioavailability in balb/c mouse at 2 mg/kg; type: ADME, organism-based; conditions: in vivo
[17] = Volume of distribution at steady state in balb/c mouse at 2 mg/kg, iv; type: ADME, organism-based; set-up: dose 2 mg/kg, route intravenous; conditions: in vivo, read-out: Vdss
[18] = Half life in balb/c mouse at 2 mg/kg, iv; type: ADME, organism-based; set-up: dose 2 mg/kg, route intravenous; conditions: in vivo
[19] = Oral bioavailability in balb/c mouse at 10 mg/kg; type: ADME, organism-based; conditions: in vivo
[20] = Tmax in balb/c mouse at 10 mg/kg, po; type: ADME, organism-based; set-up: dose 10 mg/kg, route oral; conditions: in vivo
[21] = Tmax in balb/c mouse at 50 mg/kg, po; type: ADME, organism-based; set-up: dose 50 mg/kg, route oral; conditions: in vivo
[22] = AUC in balb/c mouse at 50 mg/kg, po; type: ADME, organism-based; set-up: dose 50 mg/kg, route oral; conditions: plasma
[23] = biological target: Non-receptor tyrosine-protein kinase TYK2 (Homo sapiens, UniProt P29597); experiment: Inhibition of TYK2 (unknown origin) by caliper assay
[24] = Cmax in balb/c mouse at 50 mg/kg, po; type: ADME, organism-based; set-up: dose 50 mg/kg, route oral; conditions: in vivo
[25] = Clearance in balb/c mouse at 2 mg/kg, iv; type: ADME, organism-based; set-up: dose 2 mg/kg, route intravenous; conditions: in vivo
[26] = Half life in balb/c mouse at 10 mg/kg, po; type: ADME, organism-based; set-up: dose 10 mg/kg, route oral; conditions: in vivo
[27] = Permeability in human Caco2 cells; type: ADME, cell-based; conditions: Caco-2, read-out: permeability
[28] = Permeability by PAMPA method; type: ADME; conditions: read-out: permeability
[29] = AUC in balb/c mouse at 2 mg/kg, po; type: ADME, organism-based; set-up: dose 2 mg/kg, route oral; conditions: plasma
[30] = test system: Blood; experiment: Inhibition of IL2-induced IFN-gamma production in human whole blood incubated for 18 hrs by ELISA method; type: functional, tissue-based
[31] = Half life mouse liver microsomes; type: ADME
[32] = biological target: Cytochrome P450 2D6 (Homo sapiens, UniProt P10635); experiment: Inhibition of CYP2D6 (unknown origin); type: ADME
[33] = Tmax in balb/c mouse at 2 mg/kg, po; type: ADME, organism-based; set-up: dose 2 mg/kg, route oral; conditions: in vivo
[34] = biological target: Tyrosine-protein kinase JAK2 (Homo sapiens, UniProt O60674); experiment: Inhibition of JAK2 (unknown origin) by caliper assay
[35] = Inhibition of […] (unknown origin); type: ADME, Homo sapiens

Tyrosine-protein kinase JAK2, sequence (O60674 whole entry): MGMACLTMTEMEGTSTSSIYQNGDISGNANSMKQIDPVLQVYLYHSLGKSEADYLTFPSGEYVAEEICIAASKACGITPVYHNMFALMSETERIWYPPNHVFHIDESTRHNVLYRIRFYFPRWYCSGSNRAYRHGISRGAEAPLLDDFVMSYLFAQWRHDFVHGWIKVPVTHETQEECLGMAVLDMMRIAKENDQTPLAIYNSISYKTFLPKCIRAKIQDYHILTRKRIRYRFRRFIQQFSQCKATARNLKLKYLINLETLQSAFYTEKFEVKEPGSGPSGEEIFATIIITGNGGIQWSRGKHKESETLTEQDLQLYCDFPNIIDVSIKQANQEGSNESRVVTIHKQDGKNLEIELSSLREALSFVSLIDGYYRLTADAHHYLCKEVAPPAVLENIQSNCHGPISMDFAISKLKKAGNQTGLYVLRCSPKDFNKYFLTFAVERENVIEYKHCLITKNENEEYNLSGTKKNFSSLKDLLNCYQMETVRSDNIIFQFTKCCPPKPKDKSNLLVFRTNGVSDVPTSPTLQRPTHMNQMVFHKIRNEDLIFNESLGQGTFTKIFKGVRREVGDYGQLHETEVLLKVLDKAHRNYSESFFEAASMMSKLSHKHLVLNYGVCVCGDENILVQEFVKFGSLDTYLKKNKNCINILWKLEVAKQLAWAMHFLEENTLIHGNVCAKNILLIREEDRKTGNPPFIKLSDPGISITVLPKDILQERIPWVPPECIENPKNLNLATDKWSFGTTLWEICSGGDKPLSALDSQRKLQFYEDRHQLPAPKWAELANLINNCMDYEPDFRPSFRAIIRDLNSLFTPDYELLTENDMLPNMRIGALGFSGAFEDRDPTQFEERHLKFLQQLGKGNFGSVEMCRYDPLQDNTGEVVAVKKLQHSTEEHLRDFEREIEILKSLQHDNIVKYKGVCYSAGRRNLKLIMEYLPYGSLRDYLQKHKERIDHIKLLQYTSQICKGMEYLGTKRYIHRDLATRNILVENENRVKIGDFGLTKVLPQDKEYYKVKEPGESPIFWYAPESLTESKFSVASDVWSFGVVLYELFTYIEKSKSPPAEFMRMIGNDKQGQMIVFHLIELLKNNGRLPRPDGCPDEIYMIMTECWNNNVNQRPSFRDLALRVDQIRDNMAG
Cytochrome P450 3A4, sequence (P08684 whole entry): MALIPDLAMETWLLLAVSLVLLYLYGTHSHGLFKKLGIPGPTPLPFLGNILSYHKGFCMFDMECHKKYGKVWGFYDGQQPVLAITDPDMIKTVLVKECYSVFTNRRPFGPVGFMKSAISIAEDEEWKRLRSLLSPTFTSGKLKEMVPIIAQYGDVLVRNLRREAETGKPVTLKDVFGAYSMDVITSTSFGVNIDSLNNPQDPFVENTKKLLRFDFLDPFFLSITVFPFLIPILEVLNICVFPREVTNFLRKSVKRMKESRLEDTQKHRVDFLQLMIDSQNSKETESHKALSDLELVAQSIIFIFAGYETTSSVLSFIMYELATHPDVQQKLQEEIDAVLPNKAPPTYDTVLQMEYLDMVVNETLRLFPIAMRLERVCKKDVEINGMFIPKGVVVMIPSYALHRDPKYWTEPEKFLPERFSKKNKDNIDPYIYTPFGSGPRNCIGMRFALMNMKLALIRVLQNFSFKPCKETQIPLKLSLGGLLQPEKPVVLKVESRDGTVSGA
Tyrosine-protein kinase JAK1, sequence (P23458 whole entry): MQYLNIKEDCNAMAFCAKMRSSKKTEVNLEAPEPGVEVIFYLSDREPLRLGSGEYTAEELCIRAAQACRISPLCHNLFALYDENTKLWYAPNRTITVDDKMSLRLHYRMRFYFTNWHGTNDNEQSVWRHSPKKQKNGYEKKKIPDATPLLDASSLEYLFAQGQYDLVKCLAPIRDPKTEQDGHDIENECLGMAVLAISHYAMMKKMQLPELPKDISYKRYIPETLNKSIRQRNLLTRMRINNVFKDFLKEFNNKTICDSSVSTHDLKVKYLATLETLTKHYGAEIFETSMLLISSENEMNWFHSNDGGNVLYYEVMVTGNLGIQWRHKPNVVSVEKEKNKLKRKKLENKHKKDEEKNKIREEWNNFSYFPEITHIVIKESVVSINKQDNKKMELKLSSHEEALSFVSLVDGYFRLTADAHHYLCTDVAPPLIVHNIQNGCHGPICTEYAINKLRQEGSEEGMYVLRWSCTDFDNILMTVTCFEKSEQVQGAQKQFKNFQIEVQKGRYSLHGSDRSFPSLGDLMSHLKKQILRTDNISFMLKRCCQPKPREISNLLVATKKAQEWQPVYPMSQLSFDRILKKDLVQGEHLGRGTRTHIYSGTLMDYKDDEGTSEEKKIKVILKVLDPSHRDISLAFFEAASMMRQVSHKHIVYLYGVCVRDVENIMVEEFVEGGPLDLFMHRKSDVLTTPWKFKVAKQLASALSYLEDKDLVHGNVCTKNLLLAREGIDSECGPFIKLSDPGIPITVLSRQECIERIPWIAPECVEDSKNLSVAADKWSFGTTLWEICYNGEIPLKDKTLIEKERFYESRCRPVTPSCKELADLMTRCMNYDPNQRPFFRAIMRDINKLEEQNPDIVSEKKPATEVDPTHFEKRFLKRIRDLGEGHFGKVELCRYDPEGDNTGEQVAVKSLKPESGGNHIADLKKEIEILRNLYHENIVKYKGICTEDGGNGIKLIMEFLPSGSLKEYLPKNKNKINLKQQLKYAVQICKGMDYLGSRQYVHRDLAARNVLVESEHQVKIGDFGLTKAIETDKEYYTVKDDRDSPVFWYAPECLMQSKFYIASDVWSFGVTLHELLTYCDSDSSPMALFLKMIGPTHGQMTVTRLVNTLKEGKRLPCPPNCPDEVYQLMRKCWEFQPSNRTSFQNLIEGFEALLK
Non-receptor tyrosine-protein kinase TYK2, sequence (P29597 whole entry): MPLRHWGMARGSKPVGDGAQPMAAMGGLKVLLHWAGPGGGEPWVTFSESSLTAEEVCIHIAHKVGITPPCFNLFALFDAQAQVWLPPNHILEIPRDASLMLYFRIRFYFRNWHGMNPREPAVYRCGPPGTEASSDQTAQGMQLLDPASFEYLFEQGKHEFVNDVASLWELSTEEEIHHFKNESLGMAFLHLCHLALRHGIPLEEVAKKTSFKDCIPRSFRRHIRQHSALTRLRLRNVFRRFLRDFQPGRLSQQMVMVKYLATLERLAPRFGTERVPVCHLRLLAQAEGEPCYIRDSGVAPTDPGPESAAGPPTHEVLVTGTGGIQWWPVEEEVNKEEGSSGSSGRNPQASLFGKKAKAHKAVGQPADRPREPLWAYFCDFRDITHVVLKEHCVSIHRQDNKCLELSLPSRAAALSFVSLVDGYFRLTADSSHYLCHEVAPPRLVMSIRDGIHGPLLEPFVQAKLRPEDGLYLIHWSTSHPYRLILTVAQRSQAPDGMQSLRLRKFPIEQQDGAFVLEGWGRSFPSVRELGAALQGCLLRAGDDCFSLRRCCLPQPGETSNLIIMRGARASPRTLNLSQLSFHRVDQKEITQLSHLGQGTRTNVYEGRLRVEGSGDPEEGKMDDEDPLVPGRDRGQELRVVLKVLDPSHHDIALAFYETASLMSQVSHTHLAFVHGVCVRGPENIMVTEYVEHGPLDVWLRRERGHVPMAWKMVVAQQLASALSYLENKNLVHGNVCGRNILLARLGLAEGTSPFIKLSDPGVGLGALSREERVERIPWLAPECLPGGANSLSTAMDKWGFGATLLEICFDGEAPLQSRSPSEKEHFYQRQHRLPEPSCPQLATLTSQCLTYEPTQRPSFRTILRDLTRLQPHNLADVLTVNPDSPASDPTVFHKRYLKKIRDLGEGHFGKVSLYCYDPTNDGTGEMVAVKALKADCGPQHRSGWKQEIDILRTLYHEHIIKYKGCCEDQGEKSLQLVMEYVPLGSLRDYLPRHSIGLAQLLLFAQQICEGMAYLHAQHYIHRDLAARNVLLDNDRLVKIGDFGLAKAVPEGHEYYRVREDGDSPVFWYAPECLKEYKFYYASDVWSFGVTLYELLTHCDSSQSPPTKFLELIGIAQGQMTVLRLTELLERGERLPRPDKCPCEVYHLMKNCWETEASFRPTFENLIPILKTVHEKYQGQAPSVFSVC
Cytochrome P450 2D6, sequence (P10635 whole entry): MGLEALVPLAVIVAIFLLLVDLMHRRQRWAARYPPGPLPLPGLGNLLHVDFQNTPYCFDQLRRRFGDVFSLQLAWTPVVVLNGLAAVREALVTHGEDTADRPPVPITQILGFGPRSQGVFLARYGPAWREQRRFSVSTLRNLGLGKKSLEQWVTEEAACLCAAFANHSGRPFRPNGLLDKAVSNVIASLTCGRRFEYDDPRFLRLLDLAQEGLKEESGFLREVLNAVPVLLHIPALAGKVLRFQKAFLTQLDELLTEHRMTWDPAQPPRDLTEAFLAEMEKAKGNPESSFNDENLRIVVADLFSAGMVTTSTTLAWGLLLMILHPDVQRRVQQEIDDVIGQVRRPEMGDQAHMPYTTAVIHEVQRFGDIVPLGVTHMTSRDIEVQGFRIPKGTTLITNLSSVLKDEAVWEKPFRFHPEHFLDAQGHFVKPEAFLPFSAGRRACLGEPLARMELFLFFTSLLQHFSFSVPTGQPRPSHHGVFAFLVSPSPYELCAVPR
Cytochrome P450 2C9, sequence (P11712 whole entry): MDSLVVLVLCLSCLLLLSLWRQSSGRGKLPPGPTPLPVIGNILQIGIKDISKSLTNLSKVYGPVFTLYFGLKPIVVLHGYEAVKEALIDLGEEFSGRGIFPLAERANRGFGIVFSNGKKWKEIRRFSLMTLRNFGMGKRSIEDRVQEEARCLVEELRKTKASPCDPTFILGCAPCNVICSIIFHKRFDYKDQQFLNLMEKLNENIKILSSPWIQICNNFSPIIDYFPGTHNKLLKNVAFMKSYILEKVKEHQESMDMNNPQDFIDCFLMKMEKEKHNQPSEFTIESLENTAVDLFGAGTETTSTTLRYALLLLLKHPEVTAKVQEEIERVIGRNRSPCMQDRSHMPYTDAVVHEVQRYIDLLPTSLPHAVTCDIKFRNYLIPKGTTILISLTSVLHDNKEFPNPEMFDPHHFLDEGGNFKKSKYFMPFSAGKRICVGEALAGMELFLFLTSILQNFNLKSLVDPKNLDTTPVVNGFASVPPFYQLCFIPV

## C[C@]1(F)CCC[C@H]1Nc1c(C(N)=O)cnn2cccc12
[1]
  AUC: 2 µM·h
[2]
  AUC: 5.7 µM·h
[3]
  fraction unbound: 0.11
[4]
  bioavailability: 46%
[5]
  IC50: > 20000 nM
[6]
  IC50: 1 nM
[7]
  IC50: > 20000 nM
[8]
  IC50: 9 nM
[9]
  Cmax: 2600 nM
[10]
  half-life: 20 min
[11]
  half-life: 120 min
[12]
  Cmax: 480 nM
[13]
  half-life: 84 min
[14]
  IC50: > 20000 nM
[15]
  IC50: > 20000 nM
[16]
  bioavailability: 45%
[17]
  Vd: 4.8 L/kg
[18]
  half-life: 72 min
[19]
  bioavailability: 59%
[20]
  Tmax: 30 min
[21]
  Tmax: 30 min
[22]
  AUC: 21 µM·h
[23]
  IC50: 2 nM
[24]
  Cmax: 8200 nM
[25]
  clearance: 60 mL/min/kg
[26]
  half-life: 96 min
[27]
  Papp: 25.6 ×10⁻⁶ cm/s
[28]
  Papp: 76.6 ×10⁻⁶ cm/s
[29]
  AUC: 0.87 µM·h
[30]
  IC50: 260 nM
[31]
  half-life: 34 min
[32]
  IC50: > 20000 nM
[33]
  Tmax: 30 min
[34]
  IC50: 18 nM
[35]
  IC50: > 20000 nM
